Measurements as given in paper PMC6901909, “Synergy Pattern of Short Cationic Antimicrobial Peptides Against Multidrug-Resistant Pseudomonas aeruginosa” (Frontiers in Microbiology, 2019).
In brackets after ≈: the same amount, converted by molar mass. Peptide text beside a SMILES is read from it.

Legend:
[1] = tested on: MDR isolate of P. aeruginosa (PA 910); conditions: checkerboard, MHb
Method: The checkerboard assay was used to determine the fractional inhibitory concentrations (FICs), following the protocol described in Koneman’s Color Atlas and Textbook of Diagnostic Microbiology ([Winn et al., 2006]). Briefly, combinations of peptides and antibiotics were prepared in 96-well plates (polypropylene, Corning) in a twofold dilution series. After the addition of a log-phase bacterial inoculum of 2–5 × 10^5 CFU/ml, plates were incubated at 37°C for 18 h. The FICs were determined by visual inspection and the effects of the combinations were determined using the FICs. The FIC was computed by adding two partial FIC values, FICA—the MIC of drug A, tested in combination with drug B divided by the MIC of drug A, tested alone and FICB—the MIC of drug B, tested in combination with drug A divided by the MIC of drug B, tested alone [FIC = FICA + FICB = (MICAB/MICA) + (MICBA/MICB), where MICA and MICB are the MICs of drugs A and B alone, respectively, and MICAB and MICBA are the MIC concentrations of the drugs in combination]. Here we use the European Committee for Antimicrobial Susceptibility Testing (EUCAST) definition, which is very similar to the definition provided by [Odds, 2003], except Odds define additive effects when FIC values are between 0.5 and 1 ([European Committee for Antimicrobial Susceptibility Testing [EUCAST] of the European Society of Clinical Microbiology and Infectious Diseases [ESCMID], 2000]; [Odds, 2003]). The combination of peptide (drug A) and antibiotics (drug B) was defined as synergistic if the FIC was ≤ 0.5, indifferent if the FIC was > 0.5 but ≤ 4.0 and antagonistic if the FIC was > 4.0.

MDR-PA253 = type: cell-based, Pseudomonas aeruginosa; conditions: peptide + polymyxin B; checkerboard; strain comparison (Table 7)
Method: (§1) The checkerboard assay was used to determine the fractional inhibitory concentrations (FICs), following the protocol described in Koneman’s Color Atlas and Textbook of Diagnostic Microbiology ([Winn et al., 2006]). Briefly, combinations of peptides and antibiotics were prepared in 96-well plates (polypropylene, Corning) in a twofold dilution series. After the addition of a log-phase bacterial inoculum of 2–5 × 10^5 CFU/ml, plates were incubated at 37°C for 18 h. The FICs were determined by visual inspection and the effects of the combinations were determined using the FICs. The FIC was computed by adding two partial FIC values, FICA—the MIC of drug A, tested in combination with drug B divided by the MIC of drug A, tested alone and FICB—the MIC of drug B, tested in combination with drug A divided by the MIC of drug B, tested alone [FIC = FICA + FICB = (MICAB/MICA) + (MICBA/MICB), where MICA and MICB are the MICs of drugs A and B alone, respectively, and MICAB and MICBA are the MIC concentrations of the drugs in combination]. […]

MDR-PA919 = type: cell-based, Pseudomonas aeruginosa; conditions: peptide + polymyxin B; checkerboard; strain comparison (Table 7)
Method: as §1

P. aeruginosa PA01-wt = assay: microbe, parasite or virus in culture; type: cell-based, Pseudomonas aeruginosa; conditions: short AMPs; microdilution, Mueller-Hinton broth, 18 h at 37°C, read visually; triplicate (n = 3)
MDR P. aeruginosa PA 910 = assay: microbe, parasite or virus in culture; type: cell-based, Pseudomonas aeruginosa; conditions: peptide alone, as listed in the FIC table
Outline: (§2)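 Inoculum 2–5 10^5 CFU/ml in Mueller-Hinton broth, compounds twofold serially diluted, polypropylene microtiter plates. Strains are MDR isolates from clinical and municipal waste water.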

MDR P. aeruginosa PA 919 = assay: microbe, parasite or virus in culture; type: cell-based, Pseudomonas aeruginosa; conditions: short AMPs; microdilution, Mueller-Hinton broth, 18 h at 37°C, read visually; triplicate (n = 3)
Outline: as §2

MDR P. aeruginosa PA253 = assay: microbe, parasite or virus in culture; type: cell-based, Pseudomonas aeruginosa; conditions: short AMPs; microdilution, Mueller-Hinton broth, 18 h at 37°C, read visually; triplicate (n = 3)
Outline: as §2

`CC[C@H](C)[C@H](NC(=O)[C@H](CCCNC(=N)N)NC(=O)[C@H](C)NC(=O)[C@H](CC(C)C)NC(=O)[C@@H](N)CCCNC(=N)N)C(=O)N[C@H](C(=O)N[C@H](C(=O)N[C@H](C(=O)N[C@@H](CCCNC(=N)N)C(=O)N[C@H](C(=O)N[C@@H](CCCNC(=N)N)C(=O)N[C@@H](CCCNC(=N)N)C(N)=O)C(C)C)[C@@H](C)CC)C(C)C)C(C)C` [Peptide R11] (H-RLARIVVIRVRR-NH2) was tested, and the “FIC mean (SD), combination with KAN” value ([1]; confirmation study, peptide + kanamycin, Indopt versions 1/8 MHb, mean of at least three measurements (n = 3), SD in brackets) was 0.75 (0.17), the “FIC mean (SD), combination with TET” value ([1]; confirmation study, peptide + tetracycline, Indopt versions 1/8 MHb, mean of at least three measurements (n = 3), SD in brackets) was 0.43 (0.12) and the “FIC, combination with AMI” value ([1]; peptide + amikacin, for the Indopt versions 1/8 MHb, 2–5 × 10^5 CFU/ml, 37°C, 18 h, visual, determined once (n = 1)) was 2. The “FIC, combination with CEF” value ([1]; peptide + cefepime, for the Indopt versions 1/8 MHb, 2–5 × 10^5 CFU/ml, 37°C, 18 h, visual, determined once (n = 1)) was 2, the “FIC, combination with CET” value ([1]; peptide + ceftazidime, for the Indopt versions 1/8 MHb, 2–5 × 10^5 CFU/ml, 37°C, 18 h, visual, determined once (n = 1)) was 1 and the “FIC, combination with CIP” value ([1]; peptide + ciprofloxacin, for the Indopt versions 1/8 MHb, 2–5 × 10^5 CFU/ml, 37°C, 18 h, visual, determined once (n = 1)) was 0.53. The “FIC, combination with ERY” value ([1]; peptide + erythromycin, for the Indopt versions 1/8 MHb, 2–5 × 10^5 CFU/ml, 37°C, 18 h, visual, determined once (n = 1)) was 0.53, the “FIC, combination with IMI” value ([1]; peptide + imipenem, for the Indopt versions 1/8 MHb, 2–5 × 10^5 CFU/ml, 37°C, 18 h, visual, determined once (n = 1)) was 0.63 and the “FIC, combination with KAN” value ([1]; peptide + kanamycin, for the Indopt versions 1/8 MHb, 2–5 × 10^5 CFU/ml, 37°C, 18 h, visual, determined once (n = 1)) was 0.5. The “FIC, combination with MER” value ([1]; peptide + meropenem, for the Indopt versions 1/8 MHb, 2–5 × 10^5 CFU/ml, 37°C, 18 h, visual, determined once (n = 1)) was 0.51, the “FIC, combination with PIP” value ([1]; peptide + piperacillin, for the Indopt versions 1/8 MHb, 2–5 × 10^5 CFU/ml, 37°C, 18 h, visual, determined once (n = 1)) was 1 and the “FIC, combination with PMB” value ([1]; peptide + polymyxin B, for the Indopt versions 1/8 MHb, 2–5 × 10^5 CFU/ml, 37°C, 18 h, visual, determined once (n = 1)) was 0.63. The “FIC, combination with TET” value ([1]; peptide + tetracycline, for the Indopt versions 1/8 MHb, 2–5 × 10^5 CFU/ml, 37°C, 18 h, visual, determined once (n = 1)) was 0.53, the “FIC, combination with TOB” value ([1]; peptide + tobramycin, for the Indopt versions 1/8 MHb, 2–5 × 10^5 CFU/ml, 37°C, 18 h, visual, determined once (n = 1)) was 2 and the “FIC against polymyxin B, MDR-PA253” value (MDR-PA253) was 0.56. The “FIC against polymyxin B, MDR-PA919” value (MDR-PA919) was 0.56, the “MIC against PA01 wt” value (P. aeruginosa PA01-wt) was 16 µM (≈ 24.1 µg/mL) and the “MIC against PA910 in μM (peptides, Table 4)” value (MDR P. aeruginosa PA 910) was 64 µM. For the same compound, the “MIC against MDR isolates of PA, PA919” value (MDR P. aeruginosa PA 919) was 32 µM and the “MIC against MDR isolates of PA, PA253” value (MDR P. aeruginosa PA253) was 64 µM.
